Reference: PubChem BioAssay AID248 (DTP/NCI, 2004)
Several values for one entry are separate records, joined by “and”; a condition that tells them apart may be missing. Identical values can stand only once. Inconclusive results and toxic doses are left out. No stated cut-off is given here; in the data, active means T/C of 150% or more; inactive means T/C below 125%.

Test system: L1210 leukemia ip in BDF1 mice, survival T/C
Assay: NCI In Vivo Anticancer Drug Screen. Data for tumor model L1210 Leukemia (intraperitoneal) in B6D2F1 (BDF1) mice
Settings: endpoint: mean survival time, higher = longer survival
In short: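 Read-out is survival time, reported as the treated-group measurement over the vehicle-control measurement.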

[1] = dose: 100.0 mg/kg/injection, schedule: Q04DX003 (ip), vehicle: saline sonified
[2] = dose: 200.0 mg/kg/injection, schedule: Q04DX003 (ip), vehicle: saline sonified
[3] = dose: 100.0 mg/kg/injection, schedule: Q01DX001 (ip), vehicle: other
[4] = dose: 200.0 mg/kg/injection, schedule: Q01DX001 (ip), vehicle: other
[5] = dose: 25.0 mg/kg/injection, schedule: Q04DX003 (ip), vehicle: Klucel (hydroxypropylcellulose) (HPC)
[6] = dose: 50.0 mg/kg/injection, schedule: Q04DX003 (ip), vehicle: Klucel (hydroxypropylcellulose) (HPC)
[7] = dose: 100.0 mg/kg/injection, schedule: Q04DX003 (ip), vehicle: Klucel (hydroxypropylcellulose) (HPC)
[8] = dose: 200.0 mg/kg/injection, schedule: Q04DX003 (ip), vehicle: Klucel (hydroxypropylcellulose) (HPC)
[9] = dose: 400.0 mg/kg/injection, schedule: Q04DX003 (ip), vehicle: Klucel (hydroxypropylcellulose) (HPC)
[10] = dose: 100.0 mg/kg/injection, schedule: Q01DX001 (ip), vehicle: saline
[11] = dose: 200.0 mg/kg/injection, schedule: Q01DX001 (ip), vehicle: saline
[12] = dose: 400.0 mg/kg/injection, schedule: Q01DX001 (ip), vehicle: saline
[13] = dose: 100.0 mg/kg/injection, schedule: Q01DX001 (ip), vehicle: Klucel (hydroxypropylcellulose) (HPC)
[14] = dose: 200.0 mg/kg/injection, schedule: Q01DX001 (ip), vehicle: Klucel (hydroxypropylcellulose) (HPC)
[15] = dose: 400.0 mg/kg/injection, schedule: Q01DX001 (ip), vehicle: Klucel (hydroxypropylcellulose) (HPC)
[16] = dose: 100.0 mg/kg/injection, schedule: Q01DX001 (ip), vehicle: carboxymethylcellulose (CMC)
[17] = dose: 200.0 mg/kg/injection, schedule: Q01DX001 (ip), vehicle: carboxymethylcellulose (CMC)
[18] = dose: 100.0 mg/kg/injection, schedule: Q04DX003 (ip), vehicle: saline with Tween-80
[19] = dose: 200.0 mg/kg/injection, schedule: Q04DX003 (ip), vehicle: saline with Tween-80
[20] = dose: 400.0 mg/kg/injection, schedule: Q04DX003 (ip), vehicle: saline with Tween-80
[21] = dose: 75.0 mg/kg/injection, schedule: Q01DX001 (ip), vehicle: other
[22] = dose: 25.0 mg/kg/injection, schedule: Q04DX002 (ip), vehicle: Klucel (hydroxypropylcellulose) (HPC)
[23] = dose: 50.0 mg/kg/injection, schedule: Q04DX002 (ip), vehicle: Klucel (hydroxypropylcellulose) (HPC)
[24] = dose: 100.0 mg/kg/injection, schedule: Q04DX002 (ip), vehicle: Klucel (hydroxypropylcellulose) (HPC)
[25] = dose: 200.0 mg/kg/injection, schedule: Q04DX002 (ip), vehicle: Klucel (hydroxypropylcellulose) (HPC)
[26] = dose: 100.0 mg/kg/injection, schedule: Q01DX009 (ip), vehicle: Klucel (hydroxypropylcellulose) (HPC)
[27] = dose: 200.0 mg/kg/injection, schedule: Q01DX009 (ip), vehicle: Klucel (hydroxypropylcellulose) (HPC)
[28] = dose: 25.0 mg/kg/injection, schedule: Q01DX009 (ip), vehicle: saline with Tween-80
[29] = dose: 400.0 mg/kg/injection, schedule: Q01DX009 (ip), vehicle: Klucel (hydroxypropylcellulose) (HPC)
[30] = dose: 400.0 mg/kg/injection, schedule: Q04DX002 (ip), vehicle: Klucel (hydroxypropylcellulose) (HPC)

Measured: T/C

CC(C)(N)C(=O)O
inactive: [1] 101 % of control | [2] 98 % of control | dose: 400.0 mg/kg/injection, schedule: Q04DX003 (ip), vehicle: saline sonified 98 % of control

CCC1(O)C(=O)OCc2c1cc(-c1ccccc1)n(C)c2=O (configuration not stated)
inactive: dose: 25.0 mg/kg/injection, schedule: Q01DX001 (ip), vehicle: other 101 % of control | dose: 50.0 mg/kg/injection, schedule: Q01DX001 (ip), vehicle: other 113 % of control | [3] 101 % of control | [4] 98 % of control

O=C(OCCl)c1ccc(Cl)c(Cl)c1
inactive: [5] 95 % of control | [6] 98 % of control | [7] 101 % of control

S=C(Nc1ccccc1)Nc1ccc2ccccc2c1
inactive: [7] 100 % of control | [8] 94 % of control | [9] 110 % of control

Nc1ncnc2nc(-c3cccc(CNC(=O)c4ccccc4S(=O)(=O)F)c3)[nH]c12
inactive: dose: 25.0 mg/kg/injection, schedule: Q01DX001 (ip), vehicle: saline with Tween-80 93 % of control | dose: 50.0 mg/kg/injection, schedule: Q01DX001 (ip), vehicle: saline with Tween-80 88 % of control | dose: 100.0 mg/kg/injection, schedule: Q01DX001 (ip), vehicle: saline with Tween-80 87 % of control

CC(=O)Nc1cccc(-c2ccccc2Cl)c1
inactive: [10] 93 % of control | [11] 96 % of control | [12] 98 % of control

O=C(Nc1ccc([N+](=O)[O-])cc1Br)c1ccc(C(=O)Nc2ccc([N+](=O)[O-])cc2Br)cc1
inactive: [10] 97 % of control | [11] 105 % of control | [12] 103 % of control

Cc1cc([N+](=O)[O-])cc(Cl)n1
inactive: [13] 97 % of control | [14] 102 % of control | [15] 100 % of control

CCCCCCCCCCS
inactive: [16] 114 % of control | [17] 101 % of control

Cc1cc(NC(=O)c2ccc(C(=O)Nc3cc(C)nc4ccccc34)cc2)c2ccccc2n1
inactive: [3] 102 % of control

CC1([N+](=O)[O-])COP(=O)(Nc2cccc(Cl)c2)OC1 (configuration not stated)
inactive: [16] 95 % of control | [17] 95 % of control | dose: 400.0 mg/kg/injection, schedule: Q01DX001 (ip), vehicle: carboxymethylcellulose (CMC) 101 % of control

CCOc1ccc(N2C(=O)CC(Sc3ccccc3N)C2=O)cc1 (configuration not stated)
inactive: [18] 89 % of control | [19] 90 % of control | [20] 88 % of control

Cc1nn(C)c2c(N)ncnc12
inactive: [21] 100 % of control | dose: 150.0 mg/kg/injection, schedule: Q01DX001 (ip), vehicle: other 102 % of control | dose: 300.0 mg/kg/injection, schedule: Q01DX001 (ip), vehicle: other 98 % of control

Cc1ccc(Nc2cc(N)nc(N)n2)cc1C
inactive: dose: 25.0 mg/kg/injection, schedule: Q01DX Z (ip), vehicle: methylcellulose (MC) 97 % of control | dose: 50.0 mg/kg/injection, schedule: Q01DX Z (ip), vehicle: methylcellulose (MC) 114 % of control

COc1ccc(-c2cc3c(OC)ccc(OC)c3[nH]2)cc1OC
inactive: [22] 96 % of control | [23] 96 % of control and 99 % of control | [24] 91 % of control | [25] 93 % of control

O=C1OC(=O)c2ccc3c4ccc5c6c(ccc(c7ccc1c2c73)c64)C(=O)OC5=O
inactive: [13] 97 % of control | [14] 97 % of control | [15] 95 % of control

Cc1nc(N)c2nc(-c3ccc(N(CCCl)CCCl)cc3)c(N)nc2n1
inactive: [10] 96 % of control | [11] 96 % of control | [12] 96 % of control

Nc1nc(N)nc(CBr)n1
inactive: dose: 12.5 mg/kg/injection, schedule: Q01DX001 (ip), vehicle: Klucel (hydroxypropylcellulose) (HPC) 103 % of control | dose: 50.0 mg/kg/injection, schedule: Q01DX001 (ip), vehicle: Klucel (hydroxypropylcellulose) (HPC) 115 % of control

O=c1[nH]cnc2cc(Cl)ccc12
inactive: dose: 50.0 mg/kg/injection, schedule: Q01DX009 (ip), vehicle: Klucel (hydroxypropylcellulose) (HPC) 91 % of control | [26] 102 % of control | [27] 100 % of control

CCC1(c2ccccc2)C(=O)N(Cl)C(=O)N(Cl)C1=O
inactive: [28] 98 % of control | dose: 50.0 mg/kg/injection, schedule: Q01DX009 (ip), vehicle: saline with Tween-80 98 % of control | dose: 100.0 mg/kg/injection, schedule: Q01DX009 (ip), vehicle: saline with Tween-80 93 % of control

Clc1cc2c(cc1CO/N=C\c1ccc3c(c1)OCO3)OCO2
inactive: [1] 90 % of control | [2] 88 % of control

O=S1(=O)CCC2CCCCC2C1 (configuration not stated)
inactive: dose: 6.25 mg/kg/injection, schedule: Q01DX009 (ip), vehicle: saline with Tween-80 94 % of control | dose: 12.5 mg/kg/injection, schedule: Q01DX009 (ip), vehicle: saline with Tween-80 100 % of control | [28] 90 % of control

O=C1C=C(c2ccccc2)C2(c3ccccc3)OC2O1 (configuration not stated)
inactive: [26] 109 % of control | [7] 98 % of control | [27] 100 % of control | [8] 98 % of control | [29] 98 % of control | [9] 98 % of control

O=[N+]([O-])c1ccc2cnn(CSP(=S)(c3ccccc3)c3ccccc3)c2c1
inactive: [3] 93 % of control | [4] 101 % of control | dose: 400.0 mg/kg/injection, schedule: Q01DX001 (ip), vehicle: other 101 % of control

CC(=O)Oc1ccc(OC(C)=O)c2c1C(=O)C=CC2=O
inactive: dose: 0.78 mg/kg/injection, schedule: Q04DX002 (ip), vehicle: alcohol 110 % of control | dose: 1.56 mg/kg/injection, schedule: Q04DX002 (ip), vehicle: alcohol 100 % of control | dose: 3.12 mg/kg/injection, schedule: Q04DX002 (ip), vehicle: alcohol 106 % of control | dose: 6.25 mg/kg/injection, schedule: Q04DX002 (ip), vehicle: alcohol 93 % of control | [10] 107 % of control

CCOC(=O)c1cnc(SC)nc1NNc1nc(SC)ncc1C(=O)OCC
inactive: [7] 93 % of control | [8] 90 % of control | [9] 93 % of control

Cc1cc(Cl)cc2sc(=S)[nH]c12
inactive: [26] 96 % of control and 108 % of control | [24] 110 % of control | [27] 86 % of control and 92 % of control | [25] 110 % of control | [29] 87 % of control | [30] 110 % of control

Cc1ccc(/C([O-])=C(\C(=S)Nc2cccc(C(F)(F)F)c2)[n+]2ccccc2)cc1
inactive: [26] 103 % of control | [27] 103 % of control | [29] 94 % of control

CCCCCCCCCCCCCCCC
inactive: [5] 96 % of control | [6] 94 % of control | [26] 109 % of control | [7] 100 % of control and 104 % of control | [27] 96 % of control | [8] 102 % of control | [29] 89 % of control | [9] 97 % of control

CN(C)CCC(=O)c1cccc([N+](=O)[O-])c1
inactive: [21] 102 % of control

Nc1ccc(S(=O)(=O)Nc2ccc(Nc3c4ccccc4nc4ccccc34)cc2)cc1
inactive: dose: 3.0 mg/kg/injection, schedule: Q01DX009 (ip), vehicle: saline with Tween-80 122 % of control | dose: 6.0 mg/kg/injection, schedule: Q01DX009 (ip), vehicle: saline with Tween-80 120 % of control

Cc1[nH]c(=O)[nH]c(=O)c1CN1CCOCC1
inactive: [18] 102 % of control | [19] 113 % of control | [20] 100 % of control

CC(=O)OCC(CS(=O)c1c(Cl)c(Cl)c(Cl)c(Cl)c1Cl)OC(C)=O (configuration not stated)
inactive: [22] 93 % of control | [23] 86 % of control | [24] 106 % of control and 89 % of control | [25] 97 % of control and 124 % of control | [30] 109 % of control
